Like-named read-outs stand apart in the source and are kept apart here.
How the values were obtained:
[1] = Volatility of perfuming compounds in air; type: physicochemical
[2] = physchem
[3] = Log P (n-octanol/water) of perfuming compounds
[4] = Table 10, perfuming compounds having a woody note
[5] = Table 5, perfuming compounds having a green note
[6] = n-octanol/water, perfuming compounds having a fruity note (Table 6)
[7] = Table 6, perfuming compounds having a fruity note
[8] = Table 8, perfuming compounds having a sweet note
[9] = Table 9, perfuming compounds having a gourmand note

For `CC1=CCC(CCC(C)C(C)O)C1(C)C` (racemic), the “Volatility (μg/l air)” value [1, 4] was 5.22 μg/l air and the logP ([2]; n-octanol/water) was 4.68.

In the case of `CC(=O)/C=C/C1C(C)=CCCC1(C)C` (racemic), the Volatility [1, 5] is reported as 68.11 μg/l air and the logP [2] is reported as 4.06.

For `CC1CCC(=O)O1` (racemic) [(+−)-4-PENTANOLIDE], the “Log P (n-octanol/water)” value ([3]; Table 7, citrus note) was −0.12 and the logP [2] was -0.12.

With `CCCCCC1C(=O)CCC1CC(=O)OC` (single isomer, unassigned; (+)) the “Log P (n-octanol/water)” value [3, 4] was 2.95 and the “Volatility (μg/l air)” value [1, 4] was 1.71 μg/l air.

In the case of `CCOC(=O)C(C)CC` (racemic) [(+−)-ethyl 2-methylbutanoate], the “Log P (n-octanol/water)” value [3, 6] is reported as 2.58 and the logP ([2]; n-octanol/water) is reported as 2.58.

In the case of `COC(C)(C)[C@H]1CC=C(C)CC1`, the Volatility [1, 5] is reported as 993.39 μg/l air and the logP ([2]; n-octanol/water) is reported as 4.59.

With `CC(C)(O)CCC1CCCCC1` [4-CYCLOHEXYL-2-METHYL-2-BUTANOL] the “Log P (n-octanol/water)” value ([3]; Table 7, citrus note) was 3.93 and the logP ([2]; n-octanol/water) was 3.93.

With `CC(C)C(=O)OCCOc1ccccc1` [2-phenoxyethyl 2-methylpropanoate] the “Log P (n-octanol/water)” value [3, 7] was 2.82 and the logP ([2]; n-octanol/water) was 2.82.

Compound `C=CCOC(=O)CCCCC` [ALLYL HEXANOATE] has a logP ([2]; n-octanol/water) of 3.62.

`CC/C=C\CCOC(=O)c1ccccc1O` [(3Z)-3-hexen-1-yl salicylate] gave a Volatility [1, 5] of 4.34 μg/l air and a logP ([2]; n-octanol/water) of 4.83.

In the case of `CC/C=C\C[C@H]1C(=O)CC[C@@H]1CC(=O)OC` (racemic), the “Volatility (μg/l air)” value [1, 7] is reported as 1.59 μg/l air and the logP ([2]; n-octanol/water) is reported as 2.33.

For (2,2-DIMETHOXYETHYL)BENZENE, the “Log P (n-octanol/water)” value [3, 5] was 2.10 and the Volatility [1, 5] was 456.97 μg/l air.

For `CC(CO)c1ccccc1` (racemic) [(+−)-2-phenyl-1-propanol], the Volatility [1, 5] was 142.19 μg/l air and the logP ([2]; n-octanol/water) was 1.74.

With `CCCCCCCCC1CCC(=O)O1` (racemic) [(+−)-5-octyldihydro-2(3H)-furanone] the “Volatility (μg/l air)” value [1, 7] was 1.44 μg/l air and the logP ([2]; n-octanol/water) was 3.82.

Work on `CC/C=C\CCCCCO` [(Z)-6-NONEN-1-OL] yielded a Volatility ([1]; Table 4, watery note) of 6.91 μg/l air, a Volatility [1, 5] of 6.91 μg/l air and a logP [2] of 3.44. For the same compound, the logP ([2]; n-octanol/water) was 3.44.

For `CCOC(=O)C(C)C` [ETHYL ISOBUTYRATE], the logP ([2]; n-octanol/water) was 2.03.

With `C/C=C/c1ccc(OC)cc1` [1-methoxy-4-[(1E)-1-propen-1-yl]benzene] the “Volatility (μg/l air)” value [1, 8] was 184.60 μg/l air, the “Volatility (μg/l air)” value [1, 9] was 184.60 μg/l air and the logP [2] was 3.58.

For `CC1CCC2(O1)C(C)(C)CCCC2(C)O` (racemic), the “Log P (n-octanol/water)” value [3, 4] was 3.51 and the “Volatility (μg/l air)” value [1, 4] was 84.04 μg/l air.

For `CC1(C)CC=C(CCC=O)CC1`, the Volatility [1, 5] was 417.92 μg/l air and the logP ([2]; n-octanol/water) was 3.3.

For `CCC(=O)O[C@H]1C[C@@H]2CC[C@@]1(C)C2(C)C`, the “Volatility (μg/l air)” value [1, 4] was 216.42 μg/l air and the logP ([2]; n-octanol/water) was 4.66.

For `CC1(C)C2C[C@H]3CCC(=O)C=C3[C@@H]1C2`, the “Log P (n-octanol/water)” value [3, 4] was 3.00 and the “Volatility (μg/l air)” value [1, 4] was 4.86 μg/l air.

For `CC(C)[C@@H]1CC[C@@H](C)CC1=NO`, the Volatility [1, 5] was 22.29 μg/l air and the logP ([2]; n-octanol/water) was 2.81.

In the case of `CC(=O)/C=C/C1=C(C)CCCC1(C)C` [(3E)-4-(2,6,6-trimethyl-1-cyclohexen-1-yl)-3-buten-2-one], the “Volatility (μg/l air)” value [1, 4] is reported as 35.41 μg/l air and the logP ([2]; n-octanol/water) is reported as 3.88.

`C/C=C(\C)C(=O)OCC/C=C\CC` showed a Volatility [1, 5] of 168.78 μg/l air and a logP ([2]; n-octanol/water) of 3.96.

For `CCCC(C)=CCOC(C)=O` (mixture of isomers), the “Log P (n-octanol/water)” value [3, 5] was 3.11, the “Log P (n-octanol/water)” value [3, 6] was 3.11 and the Volatility [1, 5] was 4131.05 μg/l air. For the same compound, the Volatility ([1]; perfuming compounds having a fruity note (Table 6)) was 4131.05 μg/l air.

For `O=C1CCC2(CCCCC2)O1` [1-oxaspiro[4.5]decan-2-one], the “Volatility (μg/l air)” value [1, 9] was 62.86 μg/l air and the logP ([2]; n-octanol/water) was 1.66.

For `CC1CCC2C(C)(C)C3CC12CCC3(C)O` (racemic), the “Volatility (μg/l air)” value [1, 4] was 11.83 μg/l air and the logP [2] was 5.39.

Compound `CCCCCCCC(=O)OCC` [ethyl octanoate] has a Volatility [1, 5] of 800.05 μg/l air and a logP ([2]; n-octanol/water) of 4.2.

With `CCOC(=O)c1ccccc1` [ETHYL BENZOATE] the logP [2] was 2.51.

For `CCOC(C)OC1CCCCCCCCCCC1` (racemic) [(+−)-(1-ethoxyethoxy)cyclododecane], the “Volatility (μg/l air)” value [1, 4] was 5.04 μg/l air and the logP ([2]; n-octanol/water) was 6.68.

For `CCCCCCC=O` [HEPTANAL], the Volatility [1, 5] was 22184.00 μg/l air and the logP ([2]; n-octanol/water) was 2.15.

For `C=CC(O)CCCCC` (racemic) [(+−)-1-octen-3-ol], the Volatility [1, 5] was 3030.11 μg/l air and the logP ([2]; n-octanol/water) was 2.33.

With `CC/C(=C\C[C@H]1CC=C(C)C1(C)C)CO` the “Volatility (μg/l air)” value [1, 4] was 2.75 μg/l air and the logP ([2]; n-octanol/water) was 4.44.

In the case of `O=Cc1ccc2c(c1)OCO2` [benzo[d][1,3]dioxole-5-carbaldehyde], the “Volatility (μg/l air)” value [1, 9] is reported as 61.82 μg/l air and the logP [2] is reported as 1.52.

In the case of `CC1COCc2cc3c(cc21)C(C)(C)C(C)C3(C)C` (racemic), the “Volatility (μg/l air)” value [1, 7] is reported as 1.59 μg/l air and the logP [2] is reported as 6.57.

`CCOC(=O)Cc1ccccc1` [ETHYL PHENYLACETATE] showed a logP [2] of 2.1.

With `CC(=O)OC1CCC2C(C)(C)CCCC2(C)C1` (stereo not shown) [5,5,8a-trimethyldecahydro-2-naphthalenyl acetate] the “Volatility (μg/l air)” value [1, 4] was 14.41 μg/l air and the logP ([2]; n-octanol/water) was 5.5.

With `COC1(C)CCC23CC1C(C)(C)C2CCC3C` (racemic) [(+−)-8-methoxycedrane] the “Log P (n-octanol/water)” value [3, 4] was 7.59 and the “Volatility (μg/l air)” value [1, 4] was 42.22 μg/l air.

With `CCOc1cc(C=O)ccc1O` [3-ethoxy-4-hydroxybenzaldehyde] the “Volatility (μg/l air)” value [1, 8] was 0.11 μg/l air and the logP [2] was 1.27.
